The values that follow come from article PMC7782499, “Progerinin, an optimized progerin-lamin A binding inhibitor, ameliorates premature senescence phenotypes of Hutchinson-Gilford progeria syndrome” (Communications Biology, 2021).

One data set deals with Lmna G609G/+ mouse. Nature of the data set: Grip strength test. The data set is classed as in vivo. As to conditions: LMNA G609G/+ mice, 41-week-old, SLC-D011 for 6 weeks. From the text:
Fig. 4 Oral administration of SLC-D011 suppresses premature aging features. A Gross morphology of SLC-D011-treated (D011) mice at 8 weeks old. Body size of treated mouse was apparently larger than that of the untreated control (Con) mouse. B Oral administration of SLC-D011 increases body weights of Lmna^G609G/G609G mice. Compared with untreated control group, body weight of treated mouse was increased by ~35%, *p < 0.05. C Oral administration of SLC-D011 extends the life span of Lmna^G609G/G609G mouse. SLC-D011 in monoolein-based solution was treated by oral gavage (50 mg/kg, daily) from 5 weeks old. […] E Grip test of Lmna^G609G/+ mice at 41-week-old was performed after administration of SLC-D011 for 6 weeks. The test was repeated 10 times for each mouse (n > 4), **p < 0.001. Data are presented as mean ± SD. […] H Anti-aging effects of single treatment of SLC-D011 or lonafarnib were measured in HGPS patients-derived cells (AG11513, AG03199, AG11498, and AG03198, Coriell Cell Repositories). […] No unit is printed with them; the x axis reads Age (weeks). / Panel C: Ave=16.8 / Max=18 are printed beside the dashed curve of the control (Con). […]
For analysis of heart rate, mice were anesthetized with 2.5% isoflurane and monitored using LOGIQ E9 (GE Healthcare). […] Each estimate given corresponded to total reads measured ten times, excluding the minimum and the maximum from each group of animals.

A further data set has as its system Sprague-Dawley rats. The data set can be described thus: Single oral gavage dose toxicity study in SD rats. The note with it: for Mortality: Day 1-7; for External Gross Observation: No gross findings (animals of 3) / Internal Gross Observation: No gross findings (animals of 3): Sprague-Dawley, 7 day. The data set is classed as in vivo. From the text: The protocol and procedures involving the care and use of animals in this study was reviewed and approved by IACUC of QuBEST BIO prior to conduct (Approval no.: QBSIACUC-A18122). During the study, the care and use of animals will be conducted in accordance with all applicable guidelines of Animal Welfare Act. Eleven specific pathogen-gree Sprague-Dawley rats (~6 weeks old) were obtained from SAMTAKO Ltd. (Osan, Korea) and nine rats were used for the study. […] Food was withheld for a further 3–4 h after dosing. Each dose was based on the most recent body weight of each animal and the dose volume was […]. The dosing day was designated as Day 1. All animals were observed twice daily for mortality and moribundity during the study. A clinical observation was performed for all animals at the time of dosing and approximately 1, 2, and 4 h post-dose on dosing day, and once daily during 7-day observation period. Observations were included, but are not limited to, changes in the skin, fur, eyes and mucous membrane; respiratory, circulatory, autonomic and central nervous system function; somatomotor activity and behavior patterns. Individual body weights were measured for all animals on the day of animal receipt, randomization, prior to dosing start (Day 1) and study period (Days 4 and 7). Those animals survived on completion of the 7-day observation period were weighed body weight prior to necropsy and CO2 inhalation anesthesia and exsanguinated from the abdominal aorta. In order to avoid autolytic change, a complete gross pathology examination of the carcass was performed as soon as possible after euthanasia of all animals. Necropsy was consisted of an external examination, including identification of all clinically recorded lesions, as well as a detailed internal examination. Toxicity studies were performed by QuBEST BIO Co., Ltd (Yongin, Korea).
The objective of this study was to investigate the potential acute toxicity or approximate lethal dose of SLC-D011 following a single oral gavage administration to the SD rats.
The study group is detailed in Text Table 1.
Text Table 1. Study Group
The following parameters were evaluated: mortality (twice daily), clinical signs (1, 2, and 4 ho urs post-dose on dosing day, and once daily during 7-day period), body weights (on Days 1, 4 and 7), and […]
Mortality and Clinical Observation […]
The oral gavage route was selected since it is the intended route of administration in humans. […]
The study groups and dose level were assigned as below after consultation with the Sponsor. […]
After overnight fasting (approximately 16 hours, food but not water should be withheld overnight), test article formulations were dosed using a plastic disposable feeding needle attached to a plastic disposable syringe. Food was withheld for a further 3~4 hours after dosing. Each dose was based on the most recent body weight of each animal and the dose volume was 10 mL/kg. The dosing day was designated as study Day 1.
All animals were observed twice daily [once (am) on weekend and holiday] for mortality and moribundity during the study.
A clinical observation was performed for all animals at the time of dosing and approximately 1, 2 and 4 hours post-dose on dosing day, and once daily during 7-day observation period.

The mark [1] stands for this setting: female, rat, in vivo, 500 mg/kg.

As for `CC1(C)Oc2cc3oc(=O)ccc3cc2C[C@@H]1OC/C=C/c1ccccc1` [SLC-D011], the “Grip strength relative to LMNA +/+ (=1)” value in the data set with Lmna G609G/+ mouse turned out to be 0.9456. Besides, the “Force (%)” value in the data set with Lmna G609G/+ mouse (LMNA +/+ = 100) came to 94.5577%. Besides, the Mortality in the data set with Sprague-Dawley rats (female rats, 500 mg/kg) is 0/3; with Sprague-Dawley rats (female rats, 2,000 mg/kg), 0/3; with Sprague-Dawley rats (male rats, 500 mg/kg) it was 0/3; with Sprague-Dawley rats (male rats, 2,000 mg/kg) it was 0/3. The “External Gross Observation: No gross findings (animals of 3)” value in the data set with Sprague-Dawley rats (setting [1]) is reported as 3; in the data set on Sprague-Dawley rats (male, rat, in vivo, 500 mg/kg), 3. For the same compound, the “Internal Gross Observation: No gross findings (animals of 3)” value in the data set on Sprague-Dawley rats (setting [1]) turned out to be 3; with Sprague-Dawley rats (male, rat, in vivo, 500 mg/kg), 3. Besides, the “Clinical Observation” value in the data set on Sprague-Dawley rats (rat, in vivo, 500 mg/kg) is recorded as “Appears Normal”. Further, in the data set with Sprague-Dawley rats (single oral gavage at 500 and 2,000 mg/kg), the Tolerability result is recorded as “well tolerated”. In addition, the “Approximate lethal dose (ALD)” value with Sprague-Dawley rats (single oral gavage, both sexes) is recorded as > 2,000 mg/kg.
